Laboratory results: US20130012577A1, “PROCESS TO OBTAIN A STANDARDIZED EXTRACT OF QUERCETIN AND 3-O-METHYLQUERCETIN FROM INFLORESCENCES OF MACELA-DO-CAMPO, A COSMETIC, PHARMACEUTICAL AND VETERINARY COMPOSITION CONTAINING EXTRACT OF MACELA-DO-CAMPO, THE USE OF THIS EXTRACT AND THE METHOD OF APPLICATION OF THE AFORESAID EXTRACT” (priority 2009, published 2013)
pIC50: −log10 of the molar value. In brackets after ≈: the same amount, converted by molar mass.

Tests used:
[1] = Antioxidant activity by DPPH; type: biochemical
Method: Tests were performed for the antioxidant activity by DPPH of the dried extract of macela-do-campo obtained by spray dryer. […] Trolox (a derivative of vitamin E sold by Hoffman LaRoche) was used as a standard of the aforesaid test and has its IC50 of antioxidant activity obtained with 0.005 mg/ml. Therefore, it can be concluded that the dried extract of macela-do-campo has extremely high antioxidant effectiveness, only 4 times less than Trolox.

Propionibacterium acnes = experiment: Minimum Inhibitory Concentration (MIC), microplate dilution; type: cell-based; conditions: Cutibacterium acnes, anaerobiosis, 35° C., 96 hours, mg/ml of sample
Method: Tests were carried out for evaluating the minimum inhibitory concentrations of 3 batches of the dried extract of inflorescences of macela-do-campo produced in accordance with the process of the present invention against Propionibacterium acnes.
The procedure used for this test is the following:
Preparation of inoculum: the microorganism to be used in testing was replicated to a glass flask containing 10 ml of sterilized culture medium broth (TSB); • the flaks were incubated at 35° C.+/−2° C. for 24 hours; • the above procedure was repeated for 2 consecutive days; • 100 microliters of TSB broth were distributed in a microplate with the exception of column 1; • column 1 was inoculated with 200 microliters of the sample to be tested previously prepared and solubilized; • dilutions were carried out by transferring 100 microliters of column 1 to column 2 and 100 microliters of column 2 to column 3 and thus successively until column 10. […] The plate in which Propionibacterium acnes was inoculated was incubated under anaerobosis at 35° C.+/−2° C. for 96 hours; • after the incubation period the reading was carried out, thus observing the turbidity of the wells; • the samples were weighed and diluted in the vehicle ethanol 96° GL/distilled water (1:1) according to the weights and volumes below: […]

P. acnes = experiment: Bioautography of Propionibacterium acnes (HPTLC separation, inoculum overlay); type: cell-based; conditions: incubation 72 hours, revealed with TTC
Method: Bioautographic trials were conducted to determine the classes of the compounds present in the extract of inflorescence of Achyrocline satureioides that perform the anti-bacterial activity against Propionibacterium acnes. The bioautography consists of the chromatographic separation of the compounds by HPTLC and the subsequent application of the inoculation to the culture medium over the chromatographic plate.

PDE 5A = PDE 5A (Homo sapiens, UniProt O76074); conditions: cited from earlier work
[2] = system: smooth muscle of guinea pig corpus cavernosum; conditions: cited from earlier work
PDE3 = conditions: cited from earlier work
PDE4 = conditions: cited from earlier work
[3] = system: smooth muscle of guinea pig tracheas; conditions: guinea pig tracheas precontracted with histamine, carbachol, KCl and forskolin; cited from earlier work

SMILES	IC50 of the antioxidant activity [1] [µg/mL]	MIC (Propionibacterium acnes) [µg/mL]	anti-microbial activity in bioautography (inhibition halos) (P. acnes)	pIC50 (PDE 5A)	relaxant activity in smooth muscle of corpus cavernosum [2]	pIC50 (PDE3)	pIC50 (PDE4)	relaxation of smooth muscle of tracheas [3]
Cc1c(C)c2c(c(C)c1O)CCC(C)(C(=O)O)O2 (centres unmarked) [Trolox]	5	–	–	–	–	–	–	–
O=c1c(O)c(-c2ccc(O)c(O)c2)oc2cc(O)cc(O)c12 [quercetin]	–	36.4 (≈ 120 µM)	main ingredients responsible for the anti-microbial activity	5.72	show the same relaxant activity	–	–	–
COc1c(-c2ccc(O)c(O)c2)oc2cc(O)cc(O)c2c1=O [3-O-methylquercetin]	–	–	main ingredients responsible for the anti-microbial activity	4.06	show the same relaxant activity	5.80	4.55	capable of provoking the relaxation of the smooth muscle
